Tests used:
[1] = system: Yellow foxtail grass (YF); test: Post-emergence herbicide test; assay type: in vivo, Setaria glauca; details: Setaria, 336 h, two weeks after treatment
Method in brief: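 Potted seedlings grown in greenhouse, planting staggered to reach the target stage together, then sprayed post-emergence at 8 lbs actual compound/acre in 38 gallons/acre (4 lbs/acre formulations also prepared). Sub-irrigated afterwards. Injury or control rated visually two weeks after treatment.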

[2] = system: Crabgrass (CG); test: Post-emergence herbicide test; assay type: in vivo, Digitaria sanquinalis; details: Digitaria sanguinalis, post-emergence, 336 h, two weeks after treatment
Method in brief: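 Crabgrass (Digitaria sanquinalis) was surface seeded individually in 3' plastic pots of potting soil, covered with screened soil, and watered by sub-irrigation in greenhouse trays. Planting was staggered so seedlings reached the target stage together. Post-emergence sprays were applied in a hood with a removable belt and fixed nozzle, and control was visually rated two weeks after treatment.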

[3] = system: variety of crops and weed species; test: Pre- and post-emergence herbicide tests, overall assessment of Tables III-VI; assay type: in vivo; details: data of Tables III-VI
Method in brief: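 Crops and weeds grown in potting soil were sprayed at 8 lbs. compound per acre in 38 gallons per acre, pre-emergence pots seeded one day before treatment. Injury or control was visually rated two weeks after treatment.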

[4] = Acute oral toxicity in rats; details: rat, in vivo
[5] = system: Barnyard grass (BG); test: Post-emergence herbicide test; assay type: in vivo; details: Echinochloa crus-galli, 336 h, two weeks after treatment
Method in brief: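 Greenhouse pot-grown barnyard grass seedlings sprayed post-emergence at 8 lbs active compound per acre (some at 4 lbs/acre) in 38 gallons per acre, then sub-irrigated. Injury or control rated visually two weeks after treatment.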

[6] = system: Crabgrass (CG); test: Pre-emergence herbicide test; assay type: in vivo, Digitaria sanquinalis; details: Digitaria sanguinalis, pre-emergence, 336 h, two weeks after treatment
Method in brief: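 Crabgrass (Digitaria sanquinalis) was surface seeded in 3' plastic pots of potting soil, covered with screened soil, and watered by sub-irrigation in greenhouse trays. Pots were seeded one day before spraying in a hood with a moving belt and fixed nozzle. Plants stayed in the greenhouse on sub-irrigation, and pre-emergence control was rated visually two weeks after treatment.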

[7] = system: Corn (CN); test: Pre-emergence herbicide test; assay type: in vivo; details: Zea mays, 336 h, two weeks after treatment
Method in brief: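 Four corn seeds per pot, sown at seed-diameter depth one day before spraying, got soil surface treatment at 8 lbs/acre (4 lbs/acre formulations also prepared) in 38 gallons/acre. Pots were greenhouse-held with sub-irrigation only. Injury or control was scored visually two weeks after treatment.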

[8] = system: Cotton (CT); test: Pre-emergence herbicide test; assay type: in vivo, Gossypium hirsutum var. DPL smooth leaf; details: Gossypium hirsutum, 336 h, two weeks after treatment
Method in brief: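 Crop and weed species seeded one day before treatment, then sprayed pre-emergence at 8 lbs actual compound per acre (also 4 lbs/acre formulations) in 38 gallons per acre. Pots kept in greenhouse with sub-irrigation only; injury or control visually rated two weeks after treatment.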

CNC(=O)Nc1nnc(C(F)(F)F)s1 [Example 1, 1-Methyl-3-[5-Trifluoromethyl-2-(1,3,4-Thiadiazolyl)] Urea]
pest or weed control ([1]; 2 lb/acre): 50%
pest or weed control at 4483.4 g/ha ([1]; 4 lb/acre): 90%
pest or weed control at 8966.8 g/ha ([1]; 8 lb/acre): 100%
pest or weed control ([2]; 2 lb/acre): 60%
pest or weed control at 4483.4 g/ha ([2]; 4 lb/acre): 90%
pest or weed control at 8966.8 g/ha ([2]; 8 lb/acre): 100%
herbicidal effectiveness / selectivity, in words [3]: extremely effective when applied to a variety of crops and weed species
LD50 [4]: 436 mg/kg
pest or weed control at 2241.7 g/ha ([5]; 2 lb/acre): 70%
pest or weed control at 4483.4 g/ha ([5]; 4 lb/acre): 100%
pest or weed control at 8966.8 g/ha ([5]; 8 lb/acre): 100%
pest or weed control at 4483.4 g/ha ([6]; 4 lb/acre): 90%
pest or weed control at 8966.8 g/ha ([6]; 8 lb/acre): 100%
pest or weed control at 4483.4 g/ha ([7]; 4 lb/acre): 30%
pest or weed control at 8966.8 g/ha ([7]; 8 lb/acre): 90%
pest or weed control at 4483.4 g/ha ([8]; 4 lb/acre): 80%
pest or weed control at 8966.8 g/ha ([8]; 8 lb/acre): 100%
